According to patent EP0234113A1, “2,3-Dihydro-1H-phenalene-2-amino compounds as anti-psychotic drugs” (THE UPJOHN COMPANY, priority 1985, dated 1987):
Values joined by “and” are separate entries in the source; they are usually repeats but may differ in a detail not shown here. Identical values can stand only once. “Also recorded” adds a separate entry of the source. Like-named read-outs stand apart in the source and are kept apart here.

Experiments:
body temperature = experiment: Hypothermia Test (effect on body temperature); type: in vivo, CF-1 male mice; conditions: either test: hypothermic or apomorphine antagonism
Procedure: (§1) The Effect on Body Temperature (Hypothermia) Test and the Antagonism of Apomorphone-Induced Case Climbing (ACC), (Apomorphine Gnawing Test) are described on page 1398 of the publication, Journal of Medicinal Chemistry, Vol. 22, No. 11, pp. 1390-1398, in an article entitled "6-Aryl-4H-s-triazolo[4,3-a][1,4]benzodiazepines....Action" by J. B. Hester, Jr., et al.
For the tests here, the Hypothermia Test procedure was run as follows:
A group of four CF-1 male mice (18-22 g each) was injected intraperitoneally with the test compound prepared in 0.25 percent w/v methylcellulose in water solution. After 45 min, abdominal temperature of each mouse was measured using a thermister probe. A control group of four mice was treated with vehicle only and the temperature of the control group was taken in a similar manner. A compound was considered to have a significant effect on body temperature if the mean temperature in the test compound treated group deviated more than 3.5°C from the mean temperature of the parallel control group. Stimulants tend to elevate temperatures; depressants tend to lower body temperature.

[1] = tested on: Apomorphone-Induced Case Climbing; experiment: Apomorphine antagonism (Apomorphine gnawing test; apomorphine-induced cage climbing); type: in vivo, Mouse; conditions: mouse
From the text: as §1
(§2) Table 3. […] A. Behavioral effects in the rat. B. Behavioral effects in the monkey. C. Doses required to antagonize the indicated behavioral effects of amphetamine. D. Doses required to antagonize the indicated behavioral effects of apomorphine.

Dopamine (3H-spiperone) = experiment: Receptor Binding Assay with 3H-spiperone (Dopamine Binding Assay), rat brain homogenate; conditions: 1μM; rat brain homogenates; - indicates ligand was displaced
Procedure: The Receptor Binding Assay test for antipsychotic acitvity, was conducted as follows:
A rat brain homogenate was prepared (1) by homogenizing a whole rat brain minus the cerebellum in 10 ml of 0.05M THAM-HC1, pH 7.4, using a Polytron at a setting of 7 for 30 sec. and centrifuging at 15,000xg for 10 min. The supernatant was discarded, the pellet resuspended in 10 ml of buffer using the Polytron for 10 sec., and the centrifugation repeated. The pellet was resuspended and diluted to 100 times the original tissue weight with buffer. Then 100 ml of the homogenate was diluted to 400 ml with buffer.
The test drug was weighed out in a scintillation vial in a 1-5 mg ammount. They were dissolved by adding 0.5 ml of N-N-dimethylformamide of (DMF) and then 0.05 ml of 1M acetic acid, and vortexed to solubilize the drug. Then 10 ml of deionized and filtered water was added to the required volume. All compounds were tested at a single concentration of 1 uM.
Samples were prepared for incubation using an ^3H-spiperone (antipsychotic).
Incubation was conducted at 30°C for 30 min. on a shaking water bath. Every 30 sec., 24 tubes were filled with 1 ml of homogenate and put into the bath (this is done every 3 min. until all tubes are in the bath). Upon completion of the incubation procedure, the samples are filtered and rinsed.
The punched filters are dropped into vials, which are in turn filled with ACS liquid scintillation fluid and capped and counted in a liquid scintillation counter. Counting data is recorded and analyzed.
Results are expressed as percent decrease from control.

dopamine neurons [2] = experiment: Reversal of amphetamine depression of dopamine neuron firing rates; type: in vivo, rats
Procedure: Table 2. Dopamine neuron firing rates were recorded according to published procedures and drugs were injected intravenously in chloral hydrate anesthetized rats. A. Ability of drugs to reverse the depression in firing rates of dopamine neurons by 1 to 2 mg/kg amphetamine. The maximum effect is the maximum amount of the amphetamine effect that was reversed, even when doses were increased beyond dose causing maximum effect. […] B. Depression of dopamine neurons by full agonist apomorphine and partial agonists TDHL, (-)PPP and U-64,273A. Maximum effect is maximum depression that could be realized even after increasing doses beyong the dose causing maximum effect. For both A and B, the ED50 is the dose causing 50% of the respective antagonistic (A) or agonist (B) effect.

dopamine neurons [3] = experiment: Depression of dopamine neuron firing rates by the drug alone; type: in vivo, rats; conditions: for ED50 / Emax: Rattus norvegicus, iv; for Emax: read-out: MAXIMUM EFFECT (per cent decrease)
Procedure: Table 2. Dopamine neuron firing rates were recorded according to published procedures and drugs were injected intravenously in chloral hydrate anesthetized rats. A. Ability of drugs to reverse the depression in firing rates of dopamine neurons by 1 to 2 mg/kg amphetamine. The maximum effect is the maximum amount of the amphetamine effect that was reversed, even when doses were increased beyond dose causing maximum effect. An effect greater than 100% indicates excitation of the neuron beyond its' control rate whereas an effect less than 100% indicates partial agonist effects. B. Depression of dopamine neurons by full agonist apomorphine and partial agonists TDHL, (-)PPP and U-64,273A. Maximum effect is maximum depression that could be realized even after increasing doses beyong the dose causing maximum effect. For both A and B, the ED50 is the dose causing 50% of the respective antagonistic (A) or agonist (B) effect.

Conditioned Avoidance = experiment: Conditioned avoidance; type: in vivo; conditions: rat; (p) = partial activity, i.a. = inactive
From the text: as §2

Catalepsy = experiment: Catalepsy; conditions: rat
From the text: as §2

[4] = tested on: lethal dose of d-amphetamine; experiment: Antagonism of amphetamine toxicity; type: in vivo
From the text: as §2

6-OH DA Turning = experiment: Antagonism of amphetamine: 6-OH DA turning; type: in vivo; conditions: i.a. = inactive
From the text: as §2

locomotor activity [5] = experiment: Antagonism of amphetamine: locomotor activity; type: in vivo; conditions: i.a. = inactive
From the text: as §2

Stereotypy = experiment: Antagonism of apomorphine stereotypy; type: in vivo; conditions: i.a. = inactive, listed as U-64273A
From the text: as §2

Discrimination = experiment: Antagonism of apomorphine discrimination; type: in vivo; conditions: (p) = partial activity
From the text: as §2

Emesis = experiment: Antagonism of apomorphine emesis; type: in vivo
From the text: as §2

Locomotor activity [6] = experiment: Antagonism of apomorphine locomotor activity in reserpinized mouse; type: in vivo
From the text: as §2

locomotor activity [7] = experiment: Antagonism of apomorphine locomotor activity in rat; type: in vivo; conditions: i.a. = inactive
From the text: as §2

[8] = tested on: dopamine metabolites HVA, DOPAC, and 3MT; experiment: Dopamine metabolites in rat brain; type: in vivo; conditions: percentage of control; 3 mg/kg of chlorpromazine, 30 mg/kg clozapine or U-64,273A; Sprague-Dawley rat
plasma prolactin = experiment: Plasma prolactin; type: in vivo; conditions: Sprague-Dawley rat
Serotonin metabolites = Serotonin metabolites in rat brain; type: in vivo, Sprague-Dawley rat; conditions: percentage of control; 1 mg/kg haloperidol, 10 mg/kg of clozapine, 30 mg/kg U-64,273A
muscarinic = experiment: Muscarinic ligand binding, rat brain homogenates; conditions: 1μM, - indicates ligand was displaced
alpha-1 = experiment: Alpha-1 ligand binding, rat brain homogenates; conditions: 1μM, i.a. = inactive
alpha-2 = experiment: Alpha-2 ligand binding, rat brain homogenates; conditions: 1μM, - indicates ligand was displaced
LSD = LSD ligand binding, rat brain homogenates; conditions: 1μM, - indicates ligand was displaced
locomotor stimulation = experiment: Locomotor stimulation in reserpinized mice, drug given by itself; type: in vivo
From the text: Consistant with its having a minor amount of agonist activity, the overall behavioral effects of U-64,273A conform to that of a weak DA antagonist (Table 3). […] When given by itself, U-64,273A affected locomotor activities in rodents in a way resembling both DA auto-receptor and postsynaptic receptor agonists.

[9] = dopamine neuron firing, Table 2

Compound: CNC1Cc2cccc3cccc(c23)C1 [U-64,273A, 2,3-dihydro-N-mono-methyl-lH-phenalen-2-amine]
- active in either the hypothermic or the apomorphine antogonism test (body temperature): active
- Cage Climbing Mouse, dose required to antagonize apomorphine [1]: antagonized apomorphine
- spiperone, percentage of ligand displaced (Dopamine (3H-spiperone)): relatively weak and -46.2%
- ED50 (dopamine neurons [2]; Rattus norvegicus, Neuron, iv): 5 µg/kg
- Emax (dopamine neurons [2]; Rattus norvegicus, Neuron, iv, read-out: MAXIMUM EFFECT (per cent reversal)): 69%
- antagonist share (dopamine neurons [2]; [9]): 70%
- reversal of amphetamine's depression of DA neuronal firing (in words) (dopamine neurons [2]; intravenous, anesthetized rats): potent in reversing the effect of d-amphetamine on nigral DA neuronal firing; also recorded: not quite complete
- ED50 (dopamine neurons [3]; Neuron): 0.07 mg/kg
- Emax (dopamine neurons [3]; Neuron): 30%
- agonist share (dopamine neurons [3]; [9]): 30%
- inhibition of DA neuronal firing when given alone (in words) (dopamine neurons [3]; rat, in vivo): weakly inhibit
- Conditioned Avoidance, active dose (Conditioned Avoidance): suppressed conditioned avoidance behavior of rats with a limited efficacy
- Catalepsy, active dose (Catalepsy; i.a. = inactive): i.a.
- Mouse Toxicity, dose required to antagonize amphetamine [4]: did not protect mice
- 6-OH DA Turning, rat, dose required to antagonize amphetamine (6-OH DA Turning): antagonized d-amphetamine
- RAT locomotor activity, dose required to antagonize amphetamine (locomotor activity [5]): i.a.
- Rat Stereotypy, dose required to antagonize apomorphine (Stereotypy): i.a.
- Monkey Discrimination, dose required to antagonize apomorphine (Discrimination): antagonized apomorphine
- Dog Emesis, dose required to antagonize apomorphine (Emesis): antagonized apomorphine
- Locomotor activity, reserpinized mouse, 3 mg/kg (antag. of apomorphine) (Locomotor activity [6]): antagonized apomorphine
- Locomotor activity, reserpinized mouse, 3 mg/kg (antag. of apomorphine) (Locomotor activity [6]; listed as U-64273A): 47% antag.
- Locomotor activity, rat, dose required to antagonize apomorphine (locomotor activity [7]): i.a.
- 3MT [8]: 50%
- DOPAC [8]: 80%
- Plasma Prolactin (plasma prolactin; cell marks this value (10), probably 10 mg/kg): 1%
- 5HIAA (Serotonin metabolites): 76%
- 5HT (Serotonin metabolites): 128%
- 5HTP (Serotonin metabolites): 37%
- muscarinic, percentage of ligand displaced (muscarinic): -11.7%
- alpha-1, percentage of ligand displaced (alpha-1): i.a.
- alpha-2, percentage of ligand displaced (alpha-2): -37.5%
- LSD, percentage of ligand displaced (LSD): -67.3%
- locomotor stimulation in reserpinized mice (locomotor stimulation): no locomotor stimulation

Compound: CN(C)CCCN1c2ccccc2Sc2ccc(Cl)cc21 [CHLORPROMAZINE, chlorpromazine, reference compound]
- spiperone, percentage of ligand displaced (Dopamine (3H-spiperone)): -81.6%
- Locomotor activity, reserpinized mouse, 3 mg/kg (antag. of apomorphine) (Locomotor activity [6]): 85% (CPZ)
- 3MT [8]: 365%
- DOPAC [8]: 375%
- HVA [8]: 225%
- Plasma Prolactin (plasma prolactin; 3 mg/kg of chlorpromazine, 30 mg/kg clozapine or U-64,273A): 1057%
- muscarinic, percentage of ligand displaced (muscarinic): -96.4%
- alpha-1, percentage of ligand displaced (alpha-1): -98.6%
- alpha-2, percentage of ligand displaced (alpha-2): -83.4%
- LSD, percentage of ligand displaced (LSD): -76.8%

Compound: CN1CCc2cccc3c2[C@H]1Cc1ccc(O)c(O)c1-3 [Apomorphine, apomorphine]
- ED50 (dopamine neurons [3]; Neuron, dose causing 50% of the agonist effect, intravenously, anesthetized rats, read-out: ED50): 0.01 mg/kg
- Emax (dopamine neurons [3]; B. depress DA neuron firing rates, intravenously, chloral hydrate anesthetized rats): 100%
- Catalepsy, active dose (Catalepsy; in vivo): i.a.
- 6-OH DA Turning, rat, dose required to antagonize amphetamine (6-OH DA Turning): i.a.
